Data published in the supplement of paper PMC10307832.

Columns and labels:
Assay in all cases: relative viability (nuclei count vs DMSO), 5 days (fraction); higher = more cells survive
Sulindac + AZD7762 = compound: CC1=C(CC(=O)O)c2cc(F)ccc2/C1=C\c1ccc([S+](C)[O-])cc1 [Sulindac] + NC(=O)Nc1cc(-c2cccc(F)c2)sc1C(=O)N[C@H]1CCCNC1 [AZD7762] (partner 0.2 µM)
How it was run: (§1)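 Each reported value is a median over duplicate plates. It expresses relative viability: treated-well nuclei count divided by vehicle-well nuclei count. Lung cancer cell lines in 1536-well plates were dosed by pin tool a day after seeding, alone with one drug or with a fixed anchor-drug dose plus five library-drug doses (not always all listed) in √10 steps, and nuclei were counted after 5 days.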

[1] = compound: CN[C@@H]1C[C@H]2O[C@@](C)([C@@H]1OC)n1c3ccccc3c3c4c(c5c6ccccc6n2c5c31)C(=O)NC4 [Staurosporine] + CC(=O)c1c(C)c2cnc(Nc3ccc(N4CCNCC4)cn3)nc2n(C2CCCC2)c1=O [Palbociclib] (partner 0.5 µM)
How it was run: as §1

[2] = compound: CN[C@@H]1C[C@H]2O[C@@](C)([C@@H]1OC)n1c3ccccc3c3c4c(c5c6ccccc6n2c5c31)C(=O)NC4 [Staurosporine] + C[C@]1(O)C[C@@H](c2nc(-c3ccc4ccc(-c5ccccc5)nc4c3)c3c(N)nccn32)C1 [Linsitinib] (partner 1 µM)
How it was run: as §1

[3] = compound: CN[C@@H]1C[C@H]2O[C@@](C)([C@@H]1OC)n1c3ccccc3c3c4c(c5c6ccccc6n2c5c31)C(=O)NC4 [Staurosporine] + Cc1cc(Nc2cc(N3CCN(C)CC3)nc(Sc3ccc(NC(=O)C4CC4)cc3)n2)n[nH]1 [Tozasertib] (partner 0.1 µM)
How it was run: as §1

Row | Cell Line | relative viability (Sulindac + AZD7762; first compound 0.08 µM) | relative viability (Sulindac + AZD7762; first compound 0.253 µM) | relative viability (Sulindac + AZD7762; first compound 0.8 µM) | relative viability (Sulindac + AZD7762; first compound 2.53 µM) | relative viability (Sulindac + AZD7762; first compound 8 µM) | relative viability ([1]; first compound 0.005 µM) | relative viability ([1]; first compound 0.01581 µM) | relative viability ([1]; first compound 0.05 µM) | relative viability ([1]; first compound 0.1581 µM) | relative viability ([1]; first compound 0.5 µM) | relative viability ([2]; first compound 0.005 µM) | relative viability ([2]; first compound 0.01581 µM) | relative viability ([2]; first compound 0.05 µM) | relative viability ([2]; first compound 0.1581 µM) | relative viability ([2]; first compound 0.5 µM) | relative viability ([3]; first compound 0.005 µM) | relative viability ([3]; first compound 0.01581 µM) | relative viability ([3]; first compound 0.05 µM) | relative viability ([3]; first compound 0.1581 µM) | relative viability ([3]; first compound 0.5 µM)
1 | LC-2-ad | 0.972 | 0.906 | 0.701 | 0.815 | 0.944 | 0.537 | 0.328 | 0.279 | 0.168 | 0.109 | 0.817 | 0.434 | 0.192 | 0.0865 | 0.0668 | 0.435 | 0.239 | 0.253 | 0.219 | 0.161
2 | LCLC-97TM1 | 0.274 | 0.377 | 0.171 |  | 0.232 | 0.238 | 0.127 | 0.133 | 0.141 | 0.17 | 0.237 | 0.163 | 0.163 | 0.207 | 0.144 | 0.277 | 0.139 | 0.181 | 0.199 | 0.221
3 | LCLC-103H | 0.88 | 0.799 | 0.708 | 0.786 | 0.91 | 0.507 | 0.43 | 0.393 | 0.29 | 0.253 | 1.25 | 0.717 | 0.352 | 0.206 | 0.212 | 0.534 | 0.207 | 0.174 | 0.128 | 0.146
4 | LK-2 | 0.456 | 0.469 | 0.318 | 0.465 | 0.414 | 0.798 | 0.555 | 0.49 | 0.426 | 0.287 | 0.698 | 0.506 | 0.753 | 0.473 | 0.154 | 0.164 |  | 0.156 | 0.149 | 0.151
5 | LOU-NH91 | 0.781 | 0.809 | 0.627 | 0.742 | 0.817 | 0.535 | 0.446 | 0.475 | 0.314 | 0.28 | 0.979 | 0.744 | 0.63 | 0.365 | 0.274 | 0.727 | 0.483 | 0.375 | 0.302 | 0.191
6 | LU99A | 0.324 | 0.467 | 0.433 | 0.327 | 0.404 | 0.366 | 0.196 | 0.196 | 0.211 | 0.174 | 0.441 | 0.212 | 0.201 | 0.182 | 0.14 | 0.266 | 0.178 | 0.185 | 0.225 | 0.138
7 | LXF-289 | 1.15 | 1.15 | 0.987 | 1.21 | 1.24 | 0.717 | 0.21 | 0.16 | 0.141 | 0.117 | 0.846 |  | 0.203 | 0.1 | 0.0809 | 0.0996 | 0.072 | 0.0495 | 0.0532 | 0.0507
8 | NCI-H23 | 0.294 | 0.22 | 0.273 | 0.256 | 0.232 | 0.255 | 0.253 | 0.162 | 0.147 | 0.131 | 0.419 | 0.234 | 0.213 | 0.219 | 0.155 | 0.324 |  | 0.198 | 0.157 | 0.196
9 | NCI-H322M | 0.469 | 0.42 | 0.573 | 0.575 | 0.546 | 0.476 | 0.386 | 0.388 | 0.433 | 0.467 | 1.12 | 0.648 | 0.56 | 0.427 | 0.458 | 0.318 | 0.318 | 0.287 | 0.334 | 0.288
10 | NCI-H358 | 0.45 | 0.517 |  | 0.427 | 0.651 | 0.107 | 0.081 | 0.102 | 0.0861 | 0.0814 | 0.573 | 0.281 | 0.189 | 0.152 | 0.122 | 0.0876 | 0.0765 | 0.0699 | 0.0598 | 0.0619
11 | NCI-H441 | 1.24 | 1.03 | 0.798 | 1.18 | 1.38 | 0.161 | 0.12 | 0.118 | 0.114 | 0.112 | 0.304 | 0.126 | 0.153 | 0.153 | 0.141 | 0.392 | 0.379 | 0.231 | 0.195 | 0.208
12 | NCI-H460 | 0.984 | 0.639 | 0.812 | 0.64 | 0.846 | 0.0657 | 0.0441 | 0.0429 | 0.0284 | 0.0184 | 0.406 | 0.169 | 0.0258 | 0.0051 | 0.0055 | 0.698 | 0.113 | 0.304 | 0.0517 | 0.0214
13 | NCI-H647 | 0.592 | 0.5 | 0.362 | 0.575 | 0.488 | 0.239 |  | 0.0896 | 0.0475 | 0.0477 | 0.616 | 0.361 | 0.22 | 0.112 | 0.0579 | 0.201 | 0.157 | 0.0667 | 0.0489 | 0.061
14 | NCI-H650 | 1.03 | 0.899 | 0.766 | 0.914 | 0.978 | 0.262 | 0.208 | 0.224 | 0.234 | 0.199 | 0.472 | 0.289 | 0.249 | 0.197 | 0.177 | 0.451 | 0.238 | 0.278 | 0.193 | 0.181
15 | NCI-H727 | 0.575 | 0.643 | 0.473 | 0.582 | 0.616 | 0.649 | 0.557 | 0.5 | 0.447 | 0.443 | 0.225 | 0.234 | 0.268 | 0.277 | 0.129 | 0.562 | 0.429 | 0.303 | 0.318 | 0.297
16 | NCI-H838 | 1.05 | 0.976 | 0.843 | 0.886 | 1.04 | 0.151 | 0.138 | 0.151 | 0.121 | 0.0855 | 0.248 | 0.153 | 0.18 | 0.164 | 0.099 | 0.218 | 0.156 | 0.179 | 0.164 | 0.143
